Measured values as given in paper PMC3367954, “The Influence of pH on the Specific Adhesion of P Piliated Escherichia coli” (PLoS ONE, 2012).

Molecular target: T1, PapG adhesin (isolated P pili) (Escherichia coli, UniProt P13720)
T1 construct: gene papGI; native PapG at the tip of isolated P pili (rod of PapA), sheared from E. coli HB101/pPAP5, ammonium sulfate precipitated; PapG not purified separately
Assay: surface plasmon resonance (Biacore X100), isolated P pili over immobilised galabiose-BSA
Type: binding
Conditions: galabiose as BSA conjugate (about 30 per BSA) on CM3 chip, BSA reference subtracted; citrate-phosphate buffer pH 3.5-8.0, 25 °C; multivalent

T1 sequence (P13720 22-335): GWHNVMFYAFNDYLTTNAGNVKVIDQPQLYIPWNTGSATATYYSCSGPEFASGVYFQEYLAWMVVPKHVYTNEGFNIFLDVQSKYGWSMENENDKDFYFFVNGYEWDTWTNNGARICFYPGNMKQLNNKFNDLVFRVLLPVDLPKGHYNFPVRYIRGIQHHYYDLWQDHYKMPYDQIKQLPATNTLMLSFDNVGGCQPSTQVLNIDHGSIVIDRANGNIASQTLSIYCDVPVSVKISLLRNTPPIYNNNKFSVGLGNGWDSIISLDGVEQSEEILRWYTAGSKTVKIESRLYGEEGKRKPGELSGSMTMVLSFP

Structure (SMILES): OC[C@H]1O[C@H](O[C@@H]2[C@H](O)[C@@H](O)C(O)O[C@@H]2CO)[C@H](O)[C@@H](O)[C@H]1O (stereo partly drawn) [galabiose, α-D-Gal-(1–4)-β-D-Gal]
- surface plasmon resonance (Biacore X100), isolated P pili over immobilised galab: the binding stability of both isolated pili and bacteria to galabiose-coated surfaces was high
